Five compounds from patent publication US8088733B2 (Tranzyme Pharma Inc., priority 2006, dated 2012) can be followed below.

In one assay the test system is fasted Wistar rats. Nature of the assay: Gastric emptying of a phenol red-labelled methylcellulose meal in fasted naive rats (model for gastroparesis). The note with it: for potency in gastric emptying compared to metoclopramide, based on the different dose levels: dose-dependent, FIG. 2; for increase in gastric emptying relative to the vehicle control group: 15 min after meal. The class given is in vivo, rat. The method, then:
To examine the effects of compounds of the invention in a model for gastroparesis, compounds were evaluated for possible effects on gastric emptying in fasted rats as described below.
GHRP-6 and test samples were dissolved in vehicle of 9% HPBCD/0.9% NaCl. Immediately following oral administration of methylcellulose (2%) containing phenol red (0.05%) (2 mL/rat), test substances or vehicle (9% HPBCD/0.9% NaCl) were each administered intravenously (i.v.) at a dosing volume of 5 mL/kg.
Test substances were each administered intravenously to a group of 5 O/N-fasted Wistar derived male rats weighing 200±20 g immediately after methylcellulose (2%) containing phenol red (0.05%) was administered orally at 2 mL/animal. The animals were then sacrificed 15 minutes later. The stomach was immediately removed, homogenized in 0.1 N NaOH (5 mL) and centrifuged. Following protein precipitation by 20% trichloroacetic acid (0.5 mL) and re-alkalization of the supernatant with 0.1 N NaOH, total phenol red remaining in the stomach was determined by a colorimetric method at 560 nm. A 30 percent or more (≧30%) increase in gastric emptying, detected as the decrease in phenol red concentration in the stomach relative to the vehicle control group, is considered significant.
• 1. To ascertain data for representative compounds 25 and 298 as prokinetic agents with potent effects on gastric emptying, a model for gastroparesis. Methods • 1. Overnight-fasted rats (male, Wistar, ˜200 g, N=5/group) were given a meal of methylcellulose (2%) by intragastric gavage. The meal was labeled with phenol red (0.05%). • 2. […] Animals were sacrificed 15 minutes later; the stomach was immediately removed and homogenized in 0.1 N NaOH and centrifuged. • 4. Total phenol red remaining in the stomach was quantified by a colorimetric method at 560 nm. • 5. A >30% increase in gastric emptying, detected based on the phenol red concentration in comparison to the control group, is considered significant. Results

In assay [1] the test system is POI rats concurrently dosed with morphine. Nature of the assay: Combination rat model of post-operative ileus and opioid-induced bowel dysfunction. It is filed as in vivo.
Another assay relates to rats dosed with morphine. Nature of the assay: Rat model of opioid-induced bowel dysfunction (morphine-delayed gastric emptying and small intestinal transit). The class given is in vivo. Conditions: morphine 3 mg/kg s.c. The source says:
Opioid analgesics, such as morphine, are well known to delay gastrointestinal transit, which is a noted side effect for this class of drugs. (Greenwood-van Meerveld, B.; Gardner, C. J.; Little, P. J.; Hicks, G. A.; DeHaven-Hudkins, D. L. Preclinical studies of opioids and opioid antagonists on gastrointestinal function. Neurogastroenterol. Motil. 2004, 16, 46-53.) The clinical term for this syndrome is opioid-induced bowel dysfunction (OBD). The aim of this study was to determine whether test compounds can effectively reverse morphine-induced delayed gastric emptying and small intestinal transit in a rat model of opioid-induced bowel dysfunction.
• 1. Rats (male, Sprague-Dawley, 250-300 g, N=6-7/gp) were implanted with jugular vein catheters to accommodate dosing of test articles. • 2. Overnight-fasted rats were administered morphine by sub-cutaneous injection (3 mg/kg). • 3. After 60 minutes, rats were dosed (i.v. bolus) with vehicle, test compound (0.30, 1.0 mg/kg) or GHRP-6 (0.02 mg/kg) followed by intragastric gavage of ^99mTc methylcellulose (2%) meal. • 4. After 15 minutes, the rats were euthanized and the stomach and consecutive 10 cm segments of the intestine are isolated. Radioactivity (^99mTc) in each tissue isolate is measured as a means of measuring gastric emptying and small intestinal transit. • 5. One-way ANOVA, Dunnet's post-hoc statistical test was applied. • 6.
• 1. […] Methods • 1. Rats (male, Sprague-Dawley, 250-300 g) were implanted with jugular vein catheters to accommodate dosing of test articles. • 2. Overnight-fasted rats were administered morphine (3 mg/kg s.c.). • 3. […] After 15 min, the rats were euthanized and the stomach and consecutive 10 cm segments of the intestine are isolated. Radioactivity (^99mTc) in each tissue isolate was measured as a means of measuring the transit of the meal. • 5. Results

Where [2] appears, read: GHRP-6 0.02 mg/kg i.v., mean ± sem.

In the case of `C[C@@H]1CN[C@@H](C2CC2)C(=O)N(C)[C@H](C)C(=O)N[C@H](Cc2ccc(F)cc2)C(=O)NCCCc2ccccc2O1` [Compound 298], in the assay with fasted Wistar rats, the “potency in gastric emptying compared to metoclopramide, based on the different dose levels” value is given as around 100 fold. Besides, the gastric emptying result in assay [1] (0.1, 0.3, 1, 3 mg/kg i.v., FIG. 8) was “significantly accelerates”. Further, in assay [1] (0.1, 0.3, 1, 3 mg/kg i.v., FIG. 9), the small intestinal transit result was “significantly accelerates”. In addition, in assay [1] (combination of POI and OBD), the “lowest dose level effective at restoring GI motility” value stood at 0.1 mg/kg.
Consider GHRP-6, for which, in the assay with fasted Wistar rats (20 μg/kg i.v.), the “increase in gastric emptying relative to the vehicle control group” value is listed as 40%. In the assay with rats dosed with morphine (setting [2]), the “Geometric Center” value turned out to be 3.38 ± 0.76 and the “Intragastric Residue (%)” value stood at 0.48 ± 0.10%.
`CN1CC[C@]23c4c5ccc(O)c4O[C@H]2[C@@H](O)C=C[C@H]3[C@H]1C5` [morphine]: the “gastric emptying and small intestinal transit” value in the assay with rats dosed with morphine (preliminary study) is given as “significantly delayed”.
Turning to `CCN(CC)CCNC(=O)c1cc(Cl)c(N)cc1OC` [metoclopramide, reference compound], the “increase in gastric emptying relative to the vehicle control group” value with fasted Wistar rats (10 mg/kg i.v.) came out at 41%.
For `CCC(C)[C@@H]1NCCOc2ccccc2CCCNC(=O)[C@@H](Cc2ccc(Cl)cc2)NC(=O)[C@@H](C)N(C)C1=O` (stereo partly drawn) [Compound 25], in the assay with fasted Wistar rats (30 μg/kg), the gastric emptying entry is given as “significant gastric emptying”. In addition, in the assay with fasted Wistar rats (100 μg/kg i.v.), the “increase in gastric emptying relative to the vehicle control group” value was found to be 39%. In addition, the “potency in gastric emptying compared to metoclopramide, based on the different dose levels” value in the assay with fasted Wistar rats is listed as around 100 fold.
